Measured values from PMC5053593, “Tetrahydrobiopterin Supplementation: Elevation of Tissue Biopterin Levels Accompanied by a Relative Increase in Dihydrobiopterin in the Blood and the Role of Probenecid-Sensitive Uptake in Scavenging Dihydrobiopterin in the Liver and Kidney of Rats” (PLoS ONE, 2016).
Structures can show the parent of a compound that is named as a salt. Where two headings read alike, the source gives them in different places.

Legend:
[1] = both, Sprague-Dawley, rat, in vivo
Method: Each blood sample was divided into three portions; one served as a “whole blood” specimen, the second was for the hematocrit determination, and the third was centrifuged (10,000 rpm, 4°C, 5 min) to separate red blood cells (RBCs) from the plasma. The whole blood, plasma, and RBCs were separately subjected to differential iodine oxidation for the BP determination described below. The results were expressed as the amount of BP per unit volume of the original blood sample (plasma + RBC, mL) based on the hematocrit value. The kidneys, liver, and whole brain were removed without prior perfusion, rinsed with saline, blotted, weighed, frozen in liquid nitrogen, and then stored at -80°C until BP determination. BP carryover with the blood was ignored in the liver and kidney. However, for the brain, the BP carryover was estimated using an average blood inclusion of 1.2% (v/w), which was determined by a comparison of the heme content of the blood and brain homogenates based on light absorbance at 415 nm.
(§1) Biopterin was determined essentially according to Fukushima and Nixon and modified as described previously. Animal tissues contain at least 4 chemical species of the reduced biopterin family; BH4-4a-carbinolamine (or 4a-hydroxy-tetrahydrobiopterin), quinonoid dihydrobiopterin and 7,8-dihydrobiopterin as well as BH4. The Fukushima and Nixon method includes tissue homogenization and extraction of pterin compounds followed by measurement of amount of fully oxidized biopterin after differential iodine oxidation under acid and alkaline conditions. With their method, the biopterin quantity remaining after the acid-oxidation was taken as the total biopterin (BP = “BH4” + “BH2” + “oxidized biopterin”) and that which remained after the alkaline-oxidation, as 7,8-dihydrobiopterin (BH2) plus oxidized biopterin. […] Accordingly, in this study, the biopterin amount measured after the acid iodine oxidation was taken as the sum of “BH4” and “BH2” (“BP” = “BH2” + “BH4”), and that after the alkaline oxidation, as the amount of “BH2”. The difference was therefore taken as the “BH4” amount. The BH4 fraction (BH4%; the percentage of BH4 in BP) was calculated for each individual sample. The amounts of BH4 and BH2 were calculated based on molecular weights of 241 g/mol and 239 g/mol, respectively.

[2] = both, Sprague-Dawley, rat, in vivo; remark: listed apart in the source
Excerpt: (§2) In the following sample acquisition, special care to ensure minimal oxidation of BH4 was taken throughout the following procedure. In brief, the abdomen was opened and cannulae were set in place for collecting bile and urine. The blood samples were drawn from the tail vein into a heparin-coated capillary containing a solution of 0.1 M ascorbic acid (less than 5% by volume), and they were then subjected to differential iodine oxidation for BP determination. The urine was collected at intervals from the bladder through an indwelling needle connected to an airtight syringe in which the dead space had been filled with saline containing 50 mM each of ascorbic acid and EDTA (pH 6.8). The urine was immediately mixed with 9 volumes of 10 mM HCl containing 5 mM antioxidant. The aliquots were then subjected to quantitation of BP and creatinine. BP excretion was expressed as BP/creatinine (μmol/mg creatinine) based on the BP concentration (nmol/mL) divided by the time-matched creatinine level (μg/mL). In calculating the cumulative total, the amounts of BP in each fraction were added. Calculations were based on the BP concentration (nmol/mL) multiplied by the respective urine volume (mL) produced between each sampling time point regardless of the creatinine concentration. The bile was also collected from individual rats through a cannula in the bile duct and was immediately subjected to BP determination. The cumulative BP amount was calculated by adding up all samples measured.
Biopterin was determined essentially according to Fukushima and Nixon and modified as described previously. […] With their method, the biopterin quantity remaining after the acid-oxidation was taken as the total biopterin (BP = “BH4” + “BH2” + “oxidized biopterin”) and that which remained after the alkaline-oxidation, as 7,8-dihydrobiopterin (BH2) plus oxidized biopterin. […] Accordingly, in this study, the biopterin amount measured after the acid iodine oxidation was taken as the sum of “BH4” and “BH2” (“BP” = “BH2” + “BH4”), and that after the alkaline oxidation, as the amount of “BH2”. […] The BH4 fraction (BH4%; the percentage of BH4 in BP) was calculated for each individual sample. The amounts of BH4 and BH2 were calculated based on molecular weights of 241 g/mol and 239 g/mol, respectively.
Data were expressed as means ±S.E. The statistical significance of two groups with non-repeated determination was analyzed by Student’s t-test. The significance of difference between determinations at different times with individual animal groups was analyzed by the Paired t-test. Significance of difference between three groups was analyzed by Tukey’s test. […]

[3] = rat, in vivo
Excerpt: as §2, §1
The urinary creatinine concentration was measured using a creatininase-HMMPS method according to the manufacturer’s instructions (L-type Creatinine M; Wako Pure Chemical Industries, Osaka, Japan).
Data were expressed as means ±S.E. The statistical significance of two groups with non-repeated determination was analyzed by Student’s t-test. The significance of difference between determinations at different times with individual animal groups was analyzed by the Paired t-test. Significance of difference between three groups was analyzed by Tukey’s test. All the statistical analyses were performed with Pharmaco Basic Ver.15.0.1 (Scientist Co. Ltd., Tokyo). Using results of pterin kinetics, exponential least square approximation was performed with Excel software using Microsoft Office for Mac.

[4] = set-up: method as in PMID 22318121, PMID 22318121; conditions: cited from earlier work

## C[C@H](O)[C@H](O)[C@H]1CNc2nc(N)[nH]c(=O)c2N1 [6RBH4, (6R)-L-erythro-5,6,7,8-tetrahydrobiopterin dihydrochloride]
[1]; 30 min
  BH4% in blood: 93.9 ±0.6%
  BH4% in kidney: 98.0 ±0.2%
  BP (nmol) per organ: 76.8 nmol
  BP (nmol), sub-total of liver, blood, kidneys, brain: 515 nmol
  Brain BP increase over untreated rats: about 43%
  Kidney BP over the initial value: 58 fold
  Liver BP content: 53.3 nmol/g
  Liver BP over the initial value: 9.1 fold
[1]; 120 min
  BH4% in blood: 96.2 ±0.1%
  BH4% in liver: 98.8 ±0.1%
  BP (nmol) per organ: 39.5 nmol
  BP (nmol), sub-total of liver, blood, kidneys, brain: 325 nmol
[2]
  Biliary BH4%: ~95%
  Biliary BP outflow fit, rate constant k: 0.007 min⁻¹
  C0: 47.2 µM
  Cumulative excretion of BP in the bile as % of that in the urine: about 3%
[3]; both, Sprague-Dawley
  Urinary BP outflow: 1840 ± 250 nmol
  Urinary BP outflow as % of gross outflow obtained by 270 min: about 58%
[3]; both, Sprague-Dawley, 30 min
  Urinary BH4%: 95 ± 1%
[3]; both, Sprague-Dawley, 90 min
  Urinary BH4%: 87 ± 2%
[3]; both, Sprague-Dawley, 240 min
  Urinary BH4%: ca. 94%
[3]; iv, 5 mg/kg
  Creatinine-based urinary BP AUC0–270: 731 (μmol/mg Cr)•min
[4]
  Urinary BP flow, glomerular filtration rate constant k: 0.013 min⁻¹
  Urinary BP flow, observed gross rate constant k: 0.043 min⁻¹
[4]; gross minus glomerular rate constant
  Urinary BP flow, tubular secretion rate constant k: 0.030 min⁻¹
